What is called IC50 is the concentration that gives 50% inhibition.

These results are taken from patent publication US20250276993A1, “PSEUDO-DISACCHARIDE COMPOUNDS” (UNIVERSITEIT LEIDEN, priority 2022, published 2025).

For one test, the target named is T1, GUSB (Homo sapiens, UniProt P08236).
T1 construct: Platelet lysates contain complex mixtures of overlapping enzyme activities, including both endo- and exo-β-glucuronidases HPSE and GUSB; endogenous in cells; host or cells: human platelet lysates
T1 sequence (P08236 23-651): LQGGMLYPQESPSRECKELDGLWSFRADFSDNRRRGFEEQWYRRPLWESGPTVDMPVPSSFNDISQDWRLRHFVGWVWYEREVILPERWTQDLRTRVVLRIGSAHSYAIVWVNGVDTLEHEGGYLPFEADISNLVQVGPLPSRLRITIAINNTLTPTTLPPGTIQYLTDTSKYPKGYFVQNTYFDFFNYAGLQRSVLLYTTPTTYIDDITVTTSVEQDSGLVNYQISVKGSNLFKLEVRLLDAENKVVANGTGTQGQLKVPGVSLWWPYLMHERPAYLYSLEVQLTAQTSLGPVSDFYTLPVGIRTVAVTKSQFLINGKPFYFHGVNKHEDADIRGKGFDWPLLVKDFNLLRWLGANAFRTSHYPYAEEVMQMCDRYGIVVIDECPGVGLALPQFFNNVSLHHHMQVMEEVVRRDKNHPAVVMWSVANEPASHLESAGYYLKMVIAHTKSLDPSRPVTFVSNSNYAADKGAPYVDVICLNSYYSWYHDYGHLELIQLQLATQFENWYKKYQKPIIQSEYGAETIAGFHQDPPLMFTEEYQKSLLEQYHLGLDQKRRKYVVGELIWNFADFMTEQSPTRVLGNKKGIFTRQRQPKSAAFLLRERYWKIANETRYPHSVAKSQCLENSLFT
In words: cABPP Assay 2, platelet lysates, GUSB. The test is classed as biochemical. Conditions: preincubation with inhibitor. Here is the method:
(§1) For further competitive ABPP studies, a working protein mixture was prepared by mixing the platelet lysates (87.5 μL), buffer (pH 5.0, 150 mM, 157.5 μL) and 3 M NaCl solution (35 μL). The enzymatic reactions were carried out at a constant concentration of read-out 7 (100 nM, final). For each inhibitor 2, 12 and 13, triplicate sets of ten 0.5 mL low protein binding Eppendorf tubes were prepared. Working solutions of each inhibitor (1% DMSO (w/v), 5 μL) in a range of ten concentrations (100, 50, 25, 12.5, 6.3, 3.1, 1.6, 0.8, 0.4, 0 μM) were prepared with MilliQ water and kept on ice. The working protein mixture (8 μL) was added in each protein low binding 0.5 mL Eppendorf tube, and 1 μL of inhibitor solution was added while on ice.
(§2) Further cABPP studies were undertaken using platelet lysates to provide a more physiologically realistic environment. Platelet lysates contain complex mixtures of overlapping enzyme activities, including both endo- and exo-β-glucuronidases HPSE and GUSB respectively, thus provide a challenging environment to test inhibitor specificity.

Another test deals with AcGH79 (Acidobacterium capsulatum, UniProt C1F2K5). Nature of the test: in-gel competitive ABPP, recombinant AcGH79. Format: biochemical, A. capsulatum. Conditions: Cy5-tagged β-D-glucuronidase ABP read-out, at the tested enzyme concentration. Here is the method:
(§3) ABP labelling reactions were carried out in Mcllvaine buffer (pH 5.5), 300 mM NaCl. For recombinant proteins 200 fmol of EcGH2, BpHep, AcGH79, HPSE or proHPSE was used (20 nM in 10 μl final reaction volume). For labeling cell lysates, 4-20 μg total protein was used. Labeling reactions were initiated by the addition of ABP compounds 7, 8 or 9 to a final concentration of 100 nM (unless otherwise specified), before incubation for 30 min at 37° C. with shaking. Following labeling, samples were denatured by boiling with Laemmli buffer for 5 min and resolved by SDS-PAGE. Gels were scanned using Typhoon-5 laser scanner platform (Cytiva), using the λEX 635 nm laser and 670BP30 emission filter. For competitive ABPP (cABPP) experiments, protein mixtures were preincubated with inhibitor (or buffer only control) for 1 h at 37° C. with shaking, before the addition of 7 to a final concentration of 100 nM, and subsequent incubation for 30 min at 37° C. with shaking. SDS-PAGE and analysis steps were carried out as above. For quantitative measurements, fluorescently labeled band intensities were calculated using Imagequant (Cytiva), and normalized to the corresponding band in the inhibitor free control lane. cABPP plots were prepared and analyzed using SigmaPlot 14.0 (Systat).
(§4) Competitive activity of compounds 2, 12 and 13 were investigated using cABPP Assay 2.

The next test has as its target T2, rHPSE (Homo sapiens, UniProt Q9Y251).
T2 sequence (Q9Y251 36-109 limits assumed): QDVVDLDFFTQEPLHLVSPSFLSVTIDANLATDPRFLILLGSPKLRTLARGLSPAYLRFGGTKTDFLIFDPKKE
T2 sequence (Q9Y251 158-543 limits assumed): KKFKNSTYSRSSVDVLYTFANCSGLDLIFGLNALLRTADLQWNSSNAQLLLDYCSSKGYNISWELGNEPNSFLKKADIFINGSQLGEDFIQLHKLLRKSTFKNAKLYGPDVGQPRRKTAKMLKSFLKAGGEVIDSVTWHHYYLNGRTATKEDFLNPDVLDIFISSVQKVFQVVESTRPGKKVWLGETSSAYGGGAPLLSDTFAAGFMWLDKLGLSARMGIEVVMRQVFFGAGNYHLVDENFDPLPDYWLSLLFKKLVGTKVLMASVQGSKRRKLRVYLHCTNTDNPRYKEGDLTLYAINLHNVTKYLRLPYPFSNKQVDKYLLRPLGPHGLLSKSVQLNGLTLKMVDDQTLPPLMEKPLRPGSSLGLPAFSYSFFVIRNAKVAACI
In words: in-gel competitive ABPP, recombinant HPSE. The test is classed as biochemical. The conditions noted are these: for IC50: apparent IC50, in-gel competitive ABPP-based assay, read-out: In vitro IC50 rHPSE. As for the experimental part: as §3, §4
To gain insight into HPSE structure-activity relationships, apparent HPSE inhibition was tested for cyclitol 12, its disaccharidic analogue 13 and parent HPSE inhibitor 2 (FIG. 7a). […] Conversely, 13 could inactivate rHPSE down to 2 μM inhibitor concentration similar to 2.

In a further test the target is T3, HPSE (platelet) (Homo sapiens, UniProt Q9Y251).
T3 construct: endogenous in cells; host or cells: human platelet lysates
T3 sequence (Q9Y251 158-543 limits assumed): T2 sequence (Q9Y251 158-543 limits assumed)
T3 sequence (Q9Y251 36-109 limits assumed): T2 sequence (Q9Y251 36-109 limits assumed)
In words: cABPP Assay 2, platelet lysates, HPSE. The conditions noted are these: for IC50: apparent IC50, in-gel competitive ABPP-based assay, platelet lysate, read-out: In vitro IC50 HPSE (platelet); for inhibitor concentration down to which HPSE signal is abrogated: platelet lysates, preincubation with inhibitor. The test is classed as biochemical. As for the experimental part: as §1, §2

Test [1] has as its target T4, HPSE (Homo sapiens, UniProt Q9Y251).
T4 sequence (Q9Y251 36-109 limits assumed): T2 sequence (Q9Y251 36-109 limits assumed)
T4 sequence (Q9Y251 158-543 limits assumed): T2 sequence (Q9Y251 158-543 limits assumed)
Nature of the test: X-ray crystallography, ligand soaking of HPSE crystals. Conditions: crystal soaking. The text has this:
Xray diffraction data were collected at 100 K at beamlines i03 (HPSE-2, HPSE-3, HPSE-4, EcGUSB-1, BpHep-3), i04 (AcGH79-2, BpHep-2) and i04-1 (Apo-AcGH79, AcGH79-1, AcGH79-3) of the Diamond Light Source UK. Reflections were autoprocessed using the XIA2 pipeline. Complexes were solved by directly refining against their unliganded structures where isomorphous, or else solved by molecular replacement with PHASER (search model PDB accessions: 5E98 (HPSE), 3VNY (AcGH79), 3K46 (EcGUSB), 5BWI (BpHep)). […] Ligand coordinates were built using jLigand. Diagrams were generated using PyMOL.
HPSE—Well diffracting crystals of HPSE were obtained by the sitting-drop vapor-diffusion method at 20° C. using a well solution containing 0.1 M MES pH 5.5, 0.1 M MgCl2, 17% (w/v) PEG 3350, and a protein to well solution ratio of 200 nl:500 nl. Crystals typically appeared after 1 week. Inhibitor ligand complexes were obtained by transferring HPSE crystals to drops of well solution supplemented with 25% (v/v) ethylene glycol and 1-5 mM inhibitor. Crystals were incubated with ligand for ˜2-4 h, then directly harvested and flash-cooled in LN2 for data collection.
To better understand the molecular basis of interaction between our inhibitors and their targets, we turned to X-ray crystallography, using ligand soaking to derivatize enzymes in crystallo.

Test [2] addresses T4, HPSE. Nature of the test: cABPP Assay 1, recombinant HPSE. The test is classed as biochemical. The conditions noted are these: 1 h preincubation at 37° C., pH 5.5, 100 nM ABP 7.
The next test deals with BpHep and AcGH79. The test is classed as biochemical, B. pseudomallei; A. capsulatum. The conditions noted are these: cABPP Assay 1.
Test [3] has as its target T5, HPSE (Homo sapiens, UniProt Q9Y251).
T5 construct: fluorescent ABPs 7, 8 and 9 were applied to whole cell lysates from a panel of human cancer cell lines; endogenous in cells; host or cells: U87, PANC1, SKBR3, MDA-MB-231, HT1080, platelet lysates
T5 sequence (Q9Y251 36-543): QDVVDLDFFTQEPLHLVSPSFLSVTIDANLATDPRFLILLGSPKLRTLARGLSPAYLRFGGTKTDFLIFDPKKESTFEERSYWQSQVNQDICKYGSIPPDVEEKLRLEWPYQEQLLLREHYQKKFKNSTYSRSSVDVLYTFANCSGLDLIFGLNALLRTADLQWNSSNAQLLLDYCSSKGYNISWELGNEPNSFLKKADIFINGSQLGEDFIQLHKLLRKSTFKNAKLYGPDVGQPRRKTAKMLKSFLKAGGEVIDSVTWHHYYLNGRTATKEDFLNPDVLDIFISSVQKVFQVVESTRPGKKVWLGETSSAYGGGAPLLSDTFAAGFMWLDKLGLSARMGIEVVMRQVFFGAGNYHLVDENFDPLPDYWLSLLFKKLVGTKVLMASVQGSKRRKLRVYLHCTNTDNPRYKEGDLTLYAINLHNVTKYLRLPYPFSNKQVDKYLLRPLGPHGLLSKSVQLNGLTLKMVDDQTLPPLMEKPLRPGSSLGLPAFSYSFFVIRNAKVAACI
Nature of the test: fluorescent ABP labelling of whole cell lysates. The test is classed as biochemical. As for the experimental part:
as §3, with “(Systat). […]” for “(Systat).”

`O=C(O)C1C2O[C@H]2C(O)C(O)[C@@H]1O[C@H]1CC(CO)[C@@H](O)C(O)C1O` (stereo in doubt) [Compound 12, 4,5-dihydroxy-3-((2,3,4-trihydroxy-5-(hydroxymethyl)cyclohexyl)oxy)-7-oxabicyclo[4.1.0]heptane-2-carboxylic acid]: the “effect on GUS signals” value at GUSB was “without altering GUS signals”. Further, the IC50 on AcGH79 amounted to 1200 ± 300 nM; at rHPSE, 500 ± 500 nM; at HPSE (platelet), 400 ± 200 nM. Also, the “inhibitor concentration down to which HPSE signal is abrogated” value at HPSE (platelet) stood at 2.5 µM.
`O=C(O)C1C2O[C@H]2C(O)C(O)[C@@H]1O[C@H]1OC(CO)[C@@H](O)C(O)C1O` (stereo in doubt) [Compound 13, 4,5-dihydroxy-3-((3,4,5-trihydroxy-6-(hydroxymethyl)tetrahydro-2H-pyran-2-yl)oxy)-7-oxabicyclo[4.1.0]heptane-2-carboxylic acid]: the “effect on GUS signals” value on GUSB is on record as “without altering GUS signals”. Also, the IC50 on rHPSE is 1000 ± 1000 nM. Moreover, at rHPSE (in-gel competitive ABPP), the “inhibitor concentration down to which rHPSE is inactivated” value came out at 2 µM. Besides, on HPSE (platelet), the IC50 stood at 5000 ± 1000 nM and the “inhibitor concentration down to which HPSE signal is abrogated” value was determined as 2.5 µM.
`O=C(O)C1C2O[C@H]2C(O)C(O)[C@@H]1O[C@@H]1CC(O)[C@H](O)C(CO)O1` (stereo partly drawn) [Compound 4, 4-O-(2-deoxy-D-glucopyranosyl)-glucurono-cyclophellitol]: on HPSE [1], the “binding mode in HPSE active site cleft” value is “covalent linkages between their pseudo-anomeric carbons and the enzyme nucleophile Glu343”. Besides, the “HPSE inhibition (abrogation of labelling by ABP 7)” value (from here on “HPSE inhibition”) on HPSE [2] is listed as “inhibited HPSE at nanomolar concentrations”.
`NC1C(O)[C@H](O)C(CO)O[C@@H]1O[C@H]1C(O)C(O)[C@@H]2OC2C1C(=O)O` (stereo partly drawn) [Compound 5, 4-O-(2-amino-2-deoxy-D-glucopyranosyl)-glucurono-cyclophellitol]: the “Inhibition of BpHep and AcGH79” value in the test with BpHep and AcGH79 is on record as “all compounds apart from 5 showing activity”. Moreover, the “HPSE inhibition” value at HPSE [2] is “do not inhibit HPSE well”.
As to `[N-]=[N+]=NCC(=O)NC1C(O)[C@H](O)C(CO)O[C@@H]1O[C@H]1C(O)C(O)[C@@H]2OC2C1C(=O)O` (stereo partly drawn) [Compound 6, 4-O-(2-N-azidoacetyl-2-deoxy-D-glucopyranosyl)-glucurono-cyclophellitol], the “HPSE inhibition” value at HPSE [2] is recorded as “do not inhibit HPSE well”.
For the compound `CC(=O)NC1[C@@H](O[C@@H]2C(C(=O)O)C3O[C@H]3C(O)[C@H]2O)OC(CO)[C@@H](OCCCCCCCCNC(=O)CCCCC[N+]2=C(/C=C/C=C/C=C3/N(C)c4ccccc4C3(C)C)C(C)(C)c3ccccc32)[C@@H]1O` (stereo partly drawn) [Compound 9, 4-O-(2-N-acetyl-2-deoxy-4-O-(8-amino-Cy5-1-octyl)-α-D-glucopyranosyl)-glucurono-cyclophellitol], at HPSE [3] (10 μM ABP concentration), the most substantial off-target result is “serum albumin”. Further, the “HPSE specificity of labelling” value at HPSE [3] (ABP at 1 μM and 10 μM, lysates of U87, PANC1, SKBR3, MDA-MB-231, HT1080, platelets) was “markedly improved HPSE specificity compared to both 7 and 8”.
